Converted amounts (≈) assume the structure as drawn. Counter-ions that a name gives are not always drawn. Like-named read-outs stand apart in the source and are kept apart here.
Experiments:
[1] = system: Esherichia coli NIHJ JC-2; assay: Minimum Inhibitory Concentration (MIC), antibacterial spectrum in vitro; type: cell-based
[2] = system: Pseudomonas aeruginosa E-2; assay: as above; type: cell-based
[3] = system: Pseudomonas aeruginosa MB-3833; assay: as above; type: cell-based
[4] = system: Klebsiella pneumoniae PCI 602; assay: as above; type: cell-based
[5] = system: Streptococcus faecalis ATCC 8043; assay: as above; type: cell-based; settings: Enterococcus faecalis
[6] = system: Citrobacter freundii GN-346; assay: as above; type: cell-based
[7] = system: Salmonella typhimurium LT-2; assay: as above; type: cell-based; settings: Salmonella enterica, read-out: Minimum Inhibitory Concentration (MIC)
[8] = system: Streptococcus faecalis; assay: Antibacterial activity against Streptococcus faecalis (statement in words); type: cell-based
[9] = system: Staphylococcus aureus 209 P JC-1; assay: Minimum Inhibitory Concentration (MIC), antibacterial spectrum in vitro; type: cell-based
[10] = system: Proteus morganii 1510; assay: as above; type: cell-based
[11] = system: Staphylococus aureus (Smith I); assay: Efficacy in Mice Infected with Staphylococus aureus (Smith I); type: in vivo; settings: Staphylococcus aureus, sc, 168 h, St. aureus (Smith I) intraperitoneal infection, single subcutaneous dose one hour after infection, 7 days
Source text: (§1) A systemic infection was produced by intraperitoneal injection of the appropriate pathogen to mice (five male mice in each group, average body weight 20 g), and the mice were received single subcutaneous dose of the compound one hour after the infection.

[12] = system: Pseudomonas aeruginosa (GN 10362); assay: Efficacy in Mice Infected with Pseudomonas aeruginosa (GN 10362); type: in vivo; settings: GN10362, sc, 168 h
Source text: as §1

[13] = system: Pseudomonas aeruginosa; assay: Antibacterial activity against Pseudomonas aeruginosa (from Table 1); type: cell-based; settings: in words
[14] = system: Enterobacter cloacae P99; assay: Minimum Inhibitory Concentration (MIC), antibacterial spectrum in vitro; type: cell-based; settings: P99, read-out: Minimum Inhibitory Concentration (MIC)
[15] = system: Pseudomonas aeruginosa RPL-11; assay: as above; type: cell-based
[16] = system: Esherichia coli TEM DC-2; assay: as above; type: cell-based; settings: read-out: Minimum Inhibitory Concentration (MIC)
[17] = Concentration in Blood Serum after subcutaneous dosing (bioassay using Escherichia coli); type: in vivo; settings: mouse, sc, 25 mg/Kg subcutaneously, mice
Method: The concentration of the compound in the serum was determined by bioassay using Escherichia coli as assay microorganism.

[18] = E2, Pseudomonas aeruginosa E-2, read-out: Minimum Inhibitory Concentration (MIC)
[19] = MB3833, Pseudomonas aeruginosa MB-3833, read-out: Minimum Inhibitory Concentration (MIC)
[20] = PCI602, Klebsiella pneumoniae PCI 602, read-out: Minimum Inhibitory Concentration (MIC)
[21] = ATCC8043, Streptococcus faecalis ATCC 8043, read-out: Minimum Inhibitory Concentration (MIC)
[22] = GN346, Citrobacter freundii GN-346, read-out: Minimum Inhibitory Concentration (MIC)
[23] = 209PJC1, Staphylococcus aureus 209 P JC-1, read-out: Minimum Inhibitory Concentration (MIC)
[24] = Morganella morganii, Proteus morganii 1510, read-out: Minimum Inhibitory Concentration (MIC)

Structure (SMILES)	MIC [1] [µg/mL]	MIC [2, 18] [µg/mL]	MIC [3, 19] [µg/mL]	MIC [4, 20] [µg/mL]	MIC [5, 21] [µg/mL]	MIC [6, 22] [µg/mL]	MIC ([7]; Salmonella typhimurium LT-2) [µg/mL]	effectiveness against Streptococcus faecalis [8]	MIC [9, 23] [µg/mL]	MIC [10, 24] [µg/mL]	MIC [14] [µg/mL]	MIC [16] [µg/mL]	other results
CON=C(C(=O)NC1C(=O)N2C(C(=O)[O-])=C(CSc3cc[n+](CC(=O)O)cc3)C(C)OC12)c1csc(N)n1 [Compound 7, (6R,7R)-7-((Z)-2-(2-Aminothiazole-4-yl)-2-methoxyiminoacetamide)-(2S)-2-methyl-3-(1-carboxymethylpyridinium-4-ylthiomethyl)-1-oxa-1-dethiaceph-3-em-4-carboxylate (Sodium Salt)]	< 0.025	12.5	12.5	0.025	12.5	6.25	< 0.025	effective against Streptococcus faecalis	0.39	0.78			
CO[C@@]1(NC(=O)C(C(=O)O)c2ccc(O)cc2)C(=O)N2C(C(=O)O)=C(CSc3nnnn3C)CO[C@@H]21 (stereo partly shown) [Latamoxef, reference compound]	0.1 (≈ 0.192 µM)	6.25 (≈ 12 µM)	6.25 (≈ 12 µM)	0.2 (≈ 0.384 µM)	25 (≈ 48 µM)	1.56 (≈ 3 µM)	0.05 (≈ 0.0961 µM)		3.13 (≈ 6.01 µM)	0.2 (≈ 0.384 µM)			ED50 [11]: 0.67 mg/kg; ED50 ([12]; Ps. aeruginosa (GN 10362) intraperitoneal infection, mice, single subcutaneous dose one hour after infection, 7 days, read-out: ED 50): 2.9 mg/kg
CON=C(C(=O)NC1C(=O)N2C(C(=O)[O-])=C(CSc3cc[n+](CC(F)(F)F)cc3)C(C)OC12)c1csc(N)n1 [Compound 6, (6R,7R)-7-((Z)-2-(2-Aminothiazole-4-yl)-2-methoxyiminoacetamide)-(2S)-2-methyl-3-(1-(2,2,2-trifluoroethyl)pyridinium-4-ylthiomethyl)-1-oxa-1-dethiaceph-3-em-4-carboxylate]	0.05 (≈ 0.0852 µM)	3.13 (≈ 5.34 µM)	3.13 (≈ 5.34 µM)	0.1 (≈ 0.17 µM)	12.5 (≈ 21.3 µM)	50 (≈ 85.2 µM)	< 0.025	effective against Streptococcus faecalis	0.2 (≈ 0.341 µM)	6.25 (≈ 10.7 µM)			effectiveness against Pseudomonas aeruginosa [13]: effective against Pseudomonas aeruginosa
C[n+]1ccc(SCC2=C(C(=O)[O-])N3C(=O)C(NC(=O)C(=NOCC(=O)O)c4csc(N)n4)C3OC2)cc1 [Compound 13, (6R,7R)-7-((Z)-2-(2-Aminothiazole-4-yl)-2-carboxymethoxyiminoacetamide)-3-(1-methylpyridinium-4-ylthiomethyl)-1-oxa-1-dethiaceph-3-em-4-carboxylate (Sodium Salt)]	< 0.025	6.25	6.25	25	50	6.25	< 0.025		1.56	1.56	64	1	MIC ([15]; RPL11, Pseudomonas aeruginosa RPL-11, read-out: Minimum Inhibitory Concentration (MIC)): 128 µg/mL
CC(C)(O/N=C(\C(=O)N[C@@H]1C(=O)N2C(C(=O)[O-])=C(C[n+]3ccccc3)CS[C@H]12)c1csc(N)n1)C(=O)O [Ceftazidime, reference compound]	0.1 (≈ 0.183 µM)										64 (≈ 117 µM)	0.5 (≈ 0.915 µM)	MIC ([2]; Pseudomonas aeruginosa, E2, read-out: Minimum Inhibitory Concentration (MIC)): 0.78 µg/mL (≈ 1.43 µM); MIC ([3]; Pseudomonas aeruginosa, MB3833, read-out: Minimum Inhibitory Concentration (MIC)): 0.78 µg/mL (≈ 1.43 µM); MIC ([4]; Klebsiella pneumoniae, PCI602, read-out: Minimum Inhibitory Concentration (MIC)): 0.1 µg/mL (≈ 0.183 µM); ED50 [12]: 0.22 mg/kg; MIC ([5]; ATCC8043, read-out: Minimum Inhibitory Concentration (MIC)): 50 µg/mL (≈ 91.5 µM); MIC ([6]; Citrobacter freundii, GN346, read-out: Minimum Inhibitory Concentration (MIC)): 25 µg/mL (≈ 45.7 µM); MIC ([7]; TYPHIMURIUM): 0.05 µg/mL (≈ 0.0915 µM); MIC ([15]; Pseudomonas aeruginosa, RPL11, read-out: Minimum Inhibitory Concentration (MIC)): 3 µg/mL (≈ 5.49 µM); MIC ([9]; Staphylococcus aureus, 209PJC1, read-out: Minimum Inhibitory Concentration (MIC)): 1.56 µg/mL (≈ 2.85 µM); concentration at 0.5 h ([17]; 1/2 hour): 11500 ng/mL; concentration at 0.25 h ([17]; 1/4 hour): 20000 ng/mL; concentration at 5 min ([17]; 1/12 hour): 13000 ng/mL; concentration at 1 h ([17]; 1 hour): 6300 ng/mL; MIC ([10]; Morganella morganii, 1510, read-out: Minimum Inhibitory Concentration (MIC)): 12.5 µg/mL (≈ 22.9 µM)

— patent publication US4645769A, “1-oxa-1-dethia-cephalosporin compounds and antibacterial agent comprising the same” (Merck & Co., Inc., priority 1985, dated 1987)
